# Test results from ChEMBL document CHEMBL3885861, “Open TG-GATES”.
# Species on record: Rattus norvegicus
# Test: Open TG-GATES - Regimen: Single
# Format: toxicity, organism-based, Sprague-Dawley
# Set-up: regimen Single, gender Male, age 6 weeks
# Conditions: in vivo, po, 0 mg/kg, route gavage, dose level Control; for APTT / Bas / Eos / Fbg / Hb / Ht / Lym / MCH / MCHC / MCV / Mono / Neu / PT / Plat / RBC / Ret / WBC: tissue Blood; for KIDNEY_L / KIDNEY_R / KIDNEY_TOTAL: tissue Kidney; for LIVER: tissue Liver; for A/G / ALP / ALT / AST / BUN / CRE / Ca / Cl / DBIL / GLC / IP / K / LDH / Na / PL / RALB / TBIL / TC / TG / TP / gamma-GTP: tissue Plasma
smiles,measurement,setting,value
CC[C@H]1[C@@H]2C[C@H]3[C@@H]4N(C)c5ccccc5[C@]45C[C@@H]([C@@H]2[C@H]5O)N3[C@@H]1O [AJMALINE],TERMINAL_BW,3 h,194.6 g
same,APTT,3 h,16.6 s
same,Bas,3 h,0%
same,Eos,3 h,1%
same,Fbg,3 h,202.8 mg/dL
same,Hb,3 h,12.8 g/dL
same,Ht,3 h,39.1%
same,Lym,3 h,80.2%
same,MCH,3 h,21.8 pg
same,MCHC,3 h,32.9%
same,MCV,3 h,66.3 fL
same,Mono,3 h,6.8%
same,Neu,3 h,12.2%
same,PT,3 h,11.6 s
same,Plat,3 h,109.9 x10_4/uL
same,RBC,3 h,589.2 x10_4/ul
same,Ret,3 h,12.5%
same,WBC,3 h,94.6 x10_2/uL
same,KIDNEY_L,3 h,0.9 g
same,KIDNEY_R,3 h,0.9 g
same,KIDNEY_TOTAL,3 h,1.9 g
same,LIVER,3 h,9.4 g
same,A/G,3 h,2.5
same,ALP,3 h,879.4 IU/L
same,ALT,3 h,34.6 IU/L
same,AST,3 h,66.8 IU/L
same,BUN,3 h,10.6 mg/dL
same,CRE,3 h,0.4 mg/dL
same,Ca,3 h,11.4 mg/dL
same,Cl,3 h,100.8 meq/L
same,DBIL,3 h,0.04 mg/dL
same,GLC,3 h,191.4 mg/dL
same,IP,3 h,9.5 mg/dL
same,K,3 h,4.4 meq/L
same,LDH,3 h,95.4 IU/L
same,Na,3 h,137.2 meq/L
same,PL,3 h,149 mg/dL
same,RALB,3 h,3.7 g/dL
same,TBIL,3 h,0.3 mg/dL
same,TC,3 h,82.4 mg/dL
same,TG,3 h,69.4 mg/dL
same,TP,3 h,5.3 g/dL
same,gamma-GTP,3 h,2 IU/L
same,TERMINAL_BW,6 h,192.3 g
same,APTT,6 h,16.9 s
same,Bas,6 h,0%
same,Eos,6 h,1.2%
same,Fbg,6 h,196.2 mg/dL
same,Hb,6 h,13 g/dL
same,Ht,6 h,39.5%
same,Lym,6 h,73.4%
same,MCH,6 h,21.5 pg
same,MCHC,6 h,32.8%
same,MCV,6 h,65.3 fL
same,Mono,6 h,10.6%
same,Neu,6 h,15%
same,PT,6 h,11.6 s
same,Plat,6 h,113.8 x10_4/uL
same,RBC,6 h,605.4 x10_4/ul
same,Ret,6 h,10.6%
same,WBC,6 h,102.3 x10_2/uL
same,KIDNEY_L,6 h,0.9 g
same,KIDNEY_R,6 h,0.9 g
same,KIDNEY_TOTAL,6 h,1.7 g
same,LIVER,6 h,8.3 g
same,A/G,6 h,2.2
same,ALP,6 h,832.4 IU/L
same,ALT,6 h,34.6 IU/L
same,AST,6 h,61.8 IU/L
same,BUN,6 h,9.6 mg/dL
same,CRE,6 h,0.5 mg/dL
same,Ca,6 h,10.7 mg/dL
same,Cl,6 h,103.4 meq/L
same,DBIL,6 h,0.042 mg/dL
same,GLC,6 h,187 mg/dL
same,IP,6 h,10 mg/dL
same,K,6 h,4.8 meq/L
same,LDH,6 h,72.6 IU/L
same,Na,6 h,138.8 meq/L
same,PL,6 h,133.2 mg/dL
same,RALB,6 h,3.5 g/dL
same,TBIL,6 h,0.4 mg/dL
same,TC,6 h,83.6 mg/dL
same,TG,6 h,64.8 mg/dL
same,TP,6 h,5.2 g/dL
same,gamma-GTP,6 h,1.6 IU/L
same,TERMINAL_BW,9 h,192.7 g
same,APTT,9 h,17.8 s
same,Bas,9 h,0%
same,Eos,9 h,1%
same,Fbg,9 h,199.4 mg/dL
same,Hb,9 h,12.7 g/dL
same,Ht,9 h,38.6%
same,Lym,9 h,79.6%
same,MCH,9 h,22.2 pg
same,MCHC,9 h,32.9%
same,MCV,9 h,67.5 fL
same,Mono,9 h,7.8%
same,Neu,9 h,11.6%
same,PT,9 h,12.3 s
same,Plat,9 h,114.2 x10_4/uL
same,RBC,9 h,573.2 x10_4/ul
same,Ret,9 h,9.6%
same,WBC,9 h,93.3 x10_2/uL
same,KIDNEY_L,9 h,0.9 g
same,KIDNEY_R,9 h,0.9 g
same,KIDNEY_TOTAL,9 h,1.8 g
same,LIVER,9 h,8.2 g
same,A/G,9 h,2.4
same,ALP,9 h,800.8 IU/L
same,ALT,9 h,32.6 IU/L
same,AST,9 h,63 IU/L
same,BUN,9 h,12.2 mg/dL
same,CRE,9 h,0.6 mg/dL
same,Ca,9 h,10.4 mg/dL
same,Cl,9 h,104.6 meq/L
same,DBIL,9 h,0.064 mg/dL
same,GLC,9 h,190.4 mg/dL
same,IP,9 h,10.4 mg/dL
same,K,9 h,4.9 meq/L
same,LDH,9 h,82 IU/L
same,Na,9 h,138.2 meq/L
same,PL,9 h,126.4 mg/dL
same,RALB,9 h,3.7 g/dL
same,TBIL,9 h,0.3 mg/dL
same,TC,9 h,74.6 mg/dL
same,TG,9 h,42.8 mg/dL
same,TP,9 h,5.2 g/dL
same,gamma-GTP,9 h,0.8 IU/L
same,TERMINAL_BW,24 h,206.2 g
same,APTT,24 h,16.5 s
same,Bas,24 h,0%
same,Eos,24 h,0.8%
same,Fbg,24 h,211.2 mg/dL
same,Hb,24 h,12.6 g/dL
same,Ht,24 h,38.2%
same,Lym,24 h,75%
same,MCH,24 h,21.6 pg
same,MCHC,24 h,33.1%
same,MCV,24 h,65.4 fL
same,Mono,24 h,8.4%
same,Neu,24 h,15.6%
same,PT,24 h,11.5 s
same,Plat,24 h,106.9 x10_4/uL
same,RBC,24 h,584.2 x10_4/ul
same,Ret,24 h,10.1%
same,WBC,24 h,107.2 x10_2/uL
same,KIDNEY_L,24 h,0.9 g
same,KIDNEY_R,24 h,0.9 g
same,KIDNEY_TOTAL,24 h,1.8 g
same,LIVER,24 h,10.2 g
same,A/G,24 h,2.1
same,ALP,24 h,885.6 IU/L
same,ALT,24 h,38.6 IU/L
same,AST,24 h,66.4 IU/L
same,BUN,24 h,16.8 mg/dL
same,CRE,24 h,0.6 mg/dL
same,Ca,24 h,11 mg/dL
same,Cl,24 h,102.6 meq/L
same,DBIL,24 h,0.026 mg/dL
same,GLC,24 h,202.2 mg/dL
same,IP,24 h,8.4 mg/dL
same,K,24 h,4.6 meq/L
same,LDH,24 h,86.8 IU/L
same,Na,24 h,140.6 meq/L
same,PL,24 h,146.8 mg/dL
same,RALB,24 h,3.6 g/dL
same,TBIL,24 h,0.3 mg/dL
same,TC,24 h,81 mg/dL
same,TG,24 h,103 mg/dL
same,TP,24 h,5.4 g/dL
same,gamma-GTP,24 h,1.2 IU/L
